{"source": "PubChem BioAssay (NCI)", "assay_in_all_cases": "inhibition of tumour cell growth, NCI panel, 48 h", "key": {"SK-MEL-5 melanoma": {"tested_on": "SK-MEL-5 melanoma"}, "MDA-MB-231 breast": {"tested_on": "MDA-MB-231 breast"}, "NCI-H522 lung": {"tested_on": "NCI-H522 lung"}, "MDA-MB-435": {"tested_on": "MDA-MB-435"}, "OVCAR-4 ovarian": {"tested_on": "OVCAR-4 ovarian"}, "COLO 205 colon": {"tested_on": "COLO 205 colon"}, "MCF7 breast": {"tested_on": "MCF7 breast"}, "RPMI-8226 leukemia": {"tested_on": "RPMI-8226 leukemia"}, "KM12 colon": {"tested_on": "KM12 colon"}, "OVCAR-8 ovarian": {"tested_on": "OVCAR-8 ovarian"}, "A549 NSCLC": {"tested_on": "A549 NSCLC"}, "MALME-3M melanoma": {"tested_on": "MALME-3M melanoma"}, "786-0 renal": {"tested_on": "786-0 renal"}, "HS 578T breast": {"tested_on": "HS 578T breast"}, "UO-31 renal": {"tested_on": "UO-31 renal"}, "SF-539 CNS": {"tested_on": "SF-539 CNS"}, "SK-OV-3 ovarian": {"tested_on": "SK-OV-3 ovarian"}, "SR leukemia": {"tested_on": "SR leukemia"}, "CAKI-1 renal": {"tested_on": "CAKI-1 renal"}, "OVCAR-3 ovarian": {"tested_on": "OVCAR-3 ovarian"}, "TK-10 renal": {"tested_on": "TK-10 renal"}, "K-562 leukemia": {"tested_on": "K-562 leukemia"}, "UACC-257 melanoma": {"tested_on": "UACC-257 melanoma"}, "SK-MEL-28 melanoma": {"tested_on": "SK-MEL-28 melanoma"}, "HCT-116 colon": {"tested_on": "HCT-116 colon"}, "IGROV1 ovarian": {"tested_on": "IGROV1 ovarian"}, "NCI-H460 lung": {"tested_on": "NCI-H460 lung"}, "HT29 colon": {"tested_on": "HT29 colon"}}, "note": "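Growth conditions: 96-well plates. Treatment: test compound, 48 hours, 5 concentrations. Analysis: linear interpolation between bracketing concentrations; unreached endpoints set to highest concentration. Here, GI50 denotes the concentration required for 50% inhibition of growth. At the TGI there is no net growth.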"}
{"smiles": "COC1/C=C/OC2(C)Oc3c(C)c(O)c4c(O)c(c(/C=N/N(c5ccccc5)c5ccccc5)c(O)c4c3C2=O)NC(=O)C(C)=C/C=C/C(C)C(O)C(C)C(O)C(C)C(OC(C)=O)C1C", "note": "(stereo unspecified)", "values": [{"measurement": "GI50", "setting": "SK-MEL-5 melanoma", "result": 1760, "unit": "nM"}, {"measurement": "TGI", "setting": "SK-MEL-5 melanoma", "result": 6750, "unit": "nM"}, {"measurement": "GI50", "setting": "MDA-MB-231 breast", "result": 1380, "unit": "nM"}, {"measurement": "TGI", "setting": "MDA-MB-231 breast", "result": 4140, "unit": "nM"}, {"measurement": "GI50", "setting": "NCI-H522 lung", "result": 983, "unit": "nM"}, {"measurement": "TGI", "setting": "NCI-H522 lung", "result": 2190, "unit": "nM"}, {"measurement": "GI50", "setting": "MDA-MB-435", "result": 1650, "unit": "nM"}, {"measurement": "TGI", "setting": "MDA-MB-435", "result": 5050, "unit": "nM"}, {"measurement": "GI50", "setting": "OVCAR-4 ovarian", "result": 1950, "unit": "nM"}, {"measurement": "TGI", "setting": "OVCAR-4 ovarian", "result": 7600, "unit": "nM"}, {"measurement": "GI50", "setting": "COLO 205 colon", "result": 1730, "unit": "nM"}, {"measurement": "TGI", "setting": "COLO 205 colon", "result": 6230, "unit": "nM"}, {"measurement": "GI50", "setting": "MCF7 breast", "result": 1620, "unit": "nM"}, {"measurement": "TGI", "setting": "MCF7 breast", "result": 6580, "unit": "nM"}, {"measurement": "GI50", "setting": "RPMI-8226 leukemia", "result": 1160, "unit": "nM"}, {"measurement": "TGI", "setting": "RPMI-8226 leukemia", "result": 4420, "unit": "nM"}, {"measurement": "GI50", "setting": "KM12 colon", "result": 1650, "unit": "nM"}, {"measurement": "TGI", "setting": "KM12 colon", "result": 6450, "unit": "nM"}, {"measurement": "GI50", "setting": "OVCAR-8 ovarian", "result": 1800, "unit": "nM"}, {"measurement": "TGI", "setting": "OVCAR-8 ovarian", "result": 7970, "unit": "nM"}, {"measurement": "GI50", "setting": "A549 NSCLC", "result": 2110, "unit": "nM"}, {"measurement": "TGI", "setting": "A549 NSCLC", "result": 7800, "unit": "nM"}, {"measurement": "GI50", "setting": "MALME-3M melanoma", "result": 1830, "unit": "nM"}, {"measurement": "TGI", "setting": "MALME-3M melanoma", "result": 9360, "unit": "nM"}, {"measurement": "GI50", "setting": "786-0 renal", "result": 1630, "unit": "nM"}, {"measurement": "TGI", "setting": "786-0 renal", "result": 5960, "unit": "nM"}, {"measurement": "GI50", "setting": "HS 578T breast", "result": 1190, "unit": "nM"}, {"measurement": "TGI", "setting": "HS 578T breast", "result": 4330, "unit": "nM"}, {"measurement": "GI50", "setting": "UO-31 renal", "result": 3020, "unit": "nM"}, {"measurement": "TGI", "setting": "UO-31 renal", "result": 12000, "unit": "nM"}, {"measurement": "GI50", "setting": "SF-539 CNS", "result": 1440, "unit": "nM"}, {"measurement": "TGI", "setting": "SF-539 CNS", "result": 4700, "unit": "nM"}, {"measurement": "GI50", "setting": "SK-OV-3 ovarian", "result": 6380, "unit": "nM"}, {"measurement": "TGI", "setting": "SK-OV-3 ovarian", "result": 12900, "unit": "nM"}, {"measurement": "GI50", "setting": "SR leukemia", "result": 1400, "unit": "nM"}, {"measurement": "TGI", "setting": "SR leukemia", "result": 3390, "unit": "nM"}, {"measurement": "GI50", "setting": "CAKI-1 renal", "result": 2420, "unit": "nM"}, {"measurement": "TGI", "setting": "CAKI-1 renal", "result": 11200, "unit": "nM"}, {"measurement": "GI50", "setting": "OVCAR-3 ovarian", "result": 852, "unit": "nM"}, {"measurement": "TGI", "setting": "OVCAR-3 ovarian", "result": 1700, "unit": "nM"}, {"measurement": "GI50", "setting": "TK-10 renal", "result": 1800, "unit": "nM"}, {"measurement": "TGI", "setting": "TK-10 renal", "result": 7550, "unit": "nM"}, {"measurement": "GI50", "setting": "K-562 leukemia", "result": 1590, "unit": "nM"}, {"measurement": "TGI", "setting": "K-562 leukemia", "result": 5690, "unit": "nM"}, {"measurement": "GI50", "setting": "UACC-257 melanoma", "result": 1480, "unit": "nM"}, {"measurement": "TGI", "setting": "UACC-257 melanoma", "result": 5440, "unit": "nM"}, {"measurement": "GI50", "setting": "SK-MEL-28 melanoma", "result": 1070, "unit": "nM"}, {"measurement": "TGI", "setting": "SK-MEL-28 melanoma", "result": 2430, "unit": "nM"}, {"measurement": "GI50", "setting": "HCT-116 colon", "result": 858, "unit": "nM"}, {"measurement": "TGI", "setting": "HCT-116 colon", "result": 1760, "unit": "nM"}, {"measurement": "GI50", "setting": "IGROV1 ovarian", "result": 1850, "unit": "nM"}, {"measurement": "TGI", "setting": "IGROV1 ovarian", "result": 11500, "unit": "nM"}, {"measurement": "GI50", "setting": "NCI-H460 lung", "result": 1520, "unit": "nM"}, {"measurement": "TGI", "setting": "NCI-H460 lung", "result": 5320, "unit": "nM"}, {"measurement": "GI50", "setting": "HT29 colon", "result": 1100, "unit": "nM"}, {"measurement": "TGI", "setting": "HT29 colon", "result": 2630, "unit": "nM"}]}
